Reference: patent publication US20260184700A1, “PDK1 REGULATORY COMPOUND AND COMPOSITION CONTAINING THE SAME” (PROVIBIO CO., LTD., priority 2024, published 2026)

Assays:
[1] = tested on: MRL/lpr mice; experiment: Lupus animal model (MRL/lpr mice); format: in vivo, mouse; settings: 41-week-old female MRL/lpr mice; GO15F (30 mg/kg), GO48 (1 mg/kg), GO88 (0.5 mg/kg) intraperitoneally once daily
From the text: The MRL/MpJ-Faslpr/J (Hereinafter Referred to as “MRL/lpr”) used in this experiment is one of the representative animal models for systemic lupus erythematosus (SLE), known to produce various autoantibodies, including antinuclear antibodies, due to the lpr (lymphoproliferation) gene.
In this invention, the period up to 9 weeks of age was considered the pre-disease stage, and the period after 23 weeks of age was considered the post-disease stage, and efficacy verification experiments using this model were conducted.
MRL/lpr mice were imported from The Jackson Laboratory and acclimatized for one week in an SPF (Specific Pathogen Free) facility maintained at a temperature of 21-24° C., humidity of 40-60%, and a 12-hour light-dark cycle (lights on at 7:00 AM, lights off at 7:00 PM). […]
The serum separated at the time of necropsy of the lupus animal model was analyzed using the ‘IgG (Total) Mouse Uncoated ELISA Kit (Invitrogen, Cat. #88-50400)’ to measure the concentration of total IgG.
Capture antibody (anti-mouse IgG) diluted 1/250 in coating buffer was added to each well of a 96-well plate (Nunc™ MaxiSorp™ ELISA Plates, Uncoated, BioLegend, Cat. #423501) at 100 μl per well, and the plate was incubated at 4° C. for 16 hours.
To investigate the effect of GO15F administration on changes in the ratio of immune cells in the spleen of a lupus animal model, the spleens of mice administered each compound were excised, cells were extracted, and the cells were suspended in MACS buffer (autoMACS Washing Solution, Miltenyi Biotec., Cat. #130-092-987).
For flow cytometry analysis, FACS tubes (5 mL round tubes, Falcon, Cat. #352052) were used. To prevent non-specific binding of antibodies, 1 μg/mL of anti-mouse CD16/CD32 (InVivoPlus anti-mouse CD16/CD32, BioXCell, Cat. #BP0307) for 30 minutes to prevent non-specific binding of the antibody, then centrifuge at 1,500 rpm for 5 minutes and resuspend in 100 μL of MACS buffer.
For B cells, each FACS tube was stained with 1 μg/mL of FITC-conjugated anti-B220 antibody (eBioscience™, Cat. #11-0452-81) at 4° C. for 30 minutes, then washed with 2 mL of MACS buffer.
For T cells, each FACS tube was stained with 1 μg/mL PerCP-Cy5.5-conjugated anti-CD3 (Biolegend, Cat. #100218) at 4° C. for 30 minutes.
For macrophages, each FACS tube was stained with 1 μg/mL of PE-conjugated anti-CD11b antibody (Biolegend, Cat. #101207) and PerCP-Cy5.5-conjugated anti-F4/80 (Biolegend, Cat. #123128) and incubated at 4° C. for 30 minutes. The tubes were then washed with 2 mL of MACS buffer.
To investigate the effects of compound GO15F according to the present invention on systemic immune responses in a lupus animal model, gene expression analysis of cytokines in kidney tissue was performed as described in (1).
Each kidney tissue was used to isolate total RNA using TRIzol™ (Invitrozen, Cat. #15596018). RNA from each mouse was quantified at 1 μg using a micro-quantitative spectrophotometer (ThermoFisher Scientific, ND2000) and cDNA was synthesized.
The synthesized cDNA from each mouse was quantified to a concentration of 50 ng using a micro-quantitative spectrophotometer, and qPCR was performed for the cytokines ‘IL-2, IL-6, IL-10, IL-17, TNF-α, IFN-γ’ using a SYBR green probe (CFX96, BIO-RAD).
To investigate the effects of drug administration on renal tissue in MRL/lpr mice, the tissue was fixed in 10% neutral buffered formalin at room temperature, followed by stepwise ethanol penetration for dehydration. The tissue was then embedded in xylene and paraffin.
The blocked tissues were sectioned into 4 μm thick slices using a microtome, followed by deparaffinization, hydration, and staining.
Hematoxylin & Eosin staining, PAS staining, and Masson trichrome staining were performed for pathological evaluation of the tissues. […]

[2] = tested on: Human Osteosarcoma, Saos-2; experiment: Relative cell viability, CCK-8, Saos-2; format: cell-based
Method: Human-derived head and neck cancer cell line Fadu and osteosarcoma cell line Saos-2 were cultured in MEM medium containing 10% FBS, 100 U/mL penicillin, and 100 μg/mL streptomycin.
(§1) Following stabilization, the cells were harvested using Trypsin-EDTA treatment, centrifuged at 1,200 rpm for 3 minutes, the supernatant was removed, and the cells were resuspended in the same medium. They were then seeded into a 96-well plate (Costar 96-well cell culture plate, Corning) at 100 μL per well, and the conditions were adjusted as indicated in Table 5.
The cells were cultured in a 5% CO2 incubator at 37° C. for 24 hours, and after stabilization of the cells, each plate was washed with 200 μL of PBS per well and treated with 50 μL of culture medium per well. […]
(§2) After that, 10 μL of CCK-8 was added to each well, and the plate was incubated again at 37° C. in a 5% CO2 incubator for 2 hours.
(§3) In other words, when the survival rate of untreated cells (DMSO) is set at 100%, the relative cell survival rate in each group treated with the drug at different concentrations is indicated.

[3] = tested on: Human Colorectal Carcinoma cell line, HCT-116; experiment: Relative cell viability, CCK-8, HCT-116; format: cell-based; settings: 48 hours
Method: Human-derived breast cancer cell line MCF-7, human-derived lung cancer cell line A549, human-derived colorectal cancer cell line HCT-116, human pancreatic cancer cell line AsPC-1, glioblastoma cell line A172, and melanoma cell line Malme-3M were obtained from the Korean Cell Bank. gastric cancer cell line SNU-719, and bladder cancer cell line T24 were cultured in RPMI-1640 medium containing 10% FBS.
as §1
The cells were cultured in a 5% CO2 incubator at 37° C. for 24 hours, and after stabilization of the cells, each plate was washed with 200 μL of PBS per well and treated with 50 μL of culture medium per well.
as §2, §3

Row | Structure (SMILES) | hair growth on the facial region [1] | Relative cell viability (%) ([2]; Saos-2, 10 μM, 48 hours) | Relative cell viability (%) ([2]; Saos-2, 30 μM, 48 hours) | Relative cell viability (%) ([2]; Saos-2, 50 μM, 48 hours) | Relative cell viability (%) ([2]; Saos-2, 48 hours) | Relative cell viability (%) ([3]; HCT-116, 1 μM) | Relative cell viability (%) ([3]; HCT-116, 10 μM) | Relative cell viability (%) ([3]; HCT-116, 30 μM) | Relative cell viability (%) ([3]; HCT-116, 50 μM)
1 | Nc1ncccc1C(=O)NCCCCCCCCCCCCN1CCNCC1 [Compound 14, 2-Amino-N-(12-(piperazin-1-yl)dodecyl)nicotinamide] | hair growth was confirmed | – | – | – | – | – | – | – | –
2 | CC1(C)CN(CCCCCCCCCCCCC(=O)Nc2nc(N)c3[nH]cnc3n2)CCO1 [Compound 11, 12-[4-(2,2-dimethylmorpholin-4-yl)]dodecyl-N-(6-aminopurine-2-yl)carboxamide] | – | 24.98 | 16.00 | 36.73 | 36.73 | 21.36 | 24.91 | 24.78 | 25.26
